Entries after “also recorded” stand apart in the source; their conditions may differ. Ends that are not written are not given here.
Experiments:
[1] = target: T1, DJA1 (Homo sapiens, UniProt P31689); assay: Competition ELISA: soluble peptide vs DJA1 binding to immobilized 1097-L; details: for competition of DJA1 binding to immobilized 1097-L (in words): 1 μM DJA1, soluble peptide up to 100 μM
T1 construct: made in house
Method: (§1) HSC70, DJA1 and DJA2 were purified as His-tagged proteins, as described. HSC70 was also amplified by PCR with an N-terminal FLAG tag, inserted into pPROEXHTa (Invitrogen) and purified as described. HSC70 was stored in 100 mM KOAc, 20 mM HEPES-KOH pH 7.5, 5 mM MgOAC2 (buffer G), DJA1 and DJA2 in 500 mM NaCl, 20 mM HEPES-KOH pH 7.5, 5 mM MgOAC2 (buffer H). Avi-tagged CFTR NBD1 was purified as described.
(§2) The CFTR peptide library was designed as 15-mers with 10-residue overlaps covering the cytosolic sequences as in Fig. 1a and Supplemental Table S1. Synthetic peptides (Mimotopes, PepSet purity) contained an N-terminal biotin followed by linker sequence GSGS and the 15-mer sequence. […] Peptides were reconstituted in DMSO or water.
(§3) For peptide binding, streptavidin-coated black 96-well plates (Nunc Maxisorp, ThermoFisher) were pre-rinsed with PBS containing 0.05% Tween-20 (PBST), and 5 µM biotinylated peptides in 100 µl PBS were bound overnnight at 4 °C with agitation. Plates were washed with PBST and blocked with PBST containing 0.5% bovine serum albumin (BSA) for 1 h. After removal of blocking solution, 100 µl reactions containing chaperones at indicated concentrations were bound for 45 min at room temperature with agitation. HSC70 reactions were in buffer G containing 1 mM ATP, DJA1 and DJA2 reactions were in buffer H. For competition assays, chaperones and peptides were mixed at indicated concentrations immediately before the reactions were added to the plates. For detections, the plates were washed in PBST and 5 μM His-Probe-HRP conjugate (ThermoFisher) in 100 μL PBST added for 15 min with agitation. After washing in PBST, plates were developed using Amplex Red (ThermoFisher) according to manufacturer’s instructions, in a fluorescence plate reader (Tecan M1000).
(§4) Affinities were determined separately from binding curves and from competition curves. Data from binding of chaperones to immobilized peptides (Fig. 2a,b and Supplemental Fig. S2a–c) were fit to the equation 1/(1 − i) = (C/i)/Kd^B − b, where i is the relative saturation, C is the chaperone concentration (1 μM), Kd^B is the apparent dissociation constant from the binding data. In the plot of 1/(1 − i) against (C/i), the slope is 1/Kd^B, and −b is the intercept. […] In the plot of bi + (C/Kd^B)/i over D, the slope is 1/Kd^C, and e is the intercept. The amount of chaperone bound in the absence of competitor was set as i = 1.
(§5) Established statistical methods[71]–[73] were used to analyze the data for chaperone binding to the peptide library. First, biological and statistical outliers were identified with the Tukey method in two rounds, for biological and then statistical outliers. […] Binding data were represented as multiples of the standard deviations from the normal means. Binding in the presence of competitor peptides were shown as a fraction of binding in the absence of competitor, or the fraction competed calculated as 1 – fraction bound. Values were compared using a two-tailed unpaired Student’s t-test assuming unequal variance.

[2] = target: T2, HSC70 (Homo sapiens, UniProt P11142); assay: Competition ELISA: soluble peptide vs HSC70 binding to immobilized 1097-L; details: for competition of HSC70 binding to immobilized 1097-L (in words): 1 μM HSC70, soluble peptide up to 100 μM; for HSC70 binding site by competition screen (in words): 1 μM HSC70, 100 μM soluble peptide, Fig. 3c/5, cutoff twice SD of 733-L, n ≥ 4
T2 construct: made in house
Method: as §1, §2, §3, §4, §5

[3] = target: T3, DJA2 (Homo sapiens, UniProt O60884); assay: Competition ELISA: soluble peptide vs DJA2 binding to immobilized 1097-L; details: for competition of DJA2 binding to immobilized 1097-L (in words): 1 μM DJA2, soluble peptide up to 100 μM; for DJA2 binding site by competition screen (in words): 1 μM DJA2, 100 μM soluble peptide, Fig. 3c/5, cutoff twice SD of 733-L, n ≥ 4
T3 construct: made in house
Method: as §1, §2, §3, §4, §5

[4] = target: T2, HSC70; assay: ELISA binding of HSC70 to immobilized biotinylated CFTR peptides
Method: as §1, §2, §3, §4, §5

[5] = target: T1, DJA1; assay: ELISA binding of DJA1 to immobilized biotinylated CFTR peptides; details: 2 μM DJA1, absence of ATP, immobilized 15-mer; n ≥ 3
Method: as §1, §2, §3, §4, §5

[6] = target: T3, DJA2; assay: ELISA binding of DJA2 to immobilized biotinylated CFTR peptides; details: 2 μM DJA2, absence of ATP, immobilized 15-mer; n ≥ 3
Method: as §1, §2, §3, §4, §5

[7] = system: HSC70 and DJA2; assay: Refolding of guanidine denatured luciferase by HSC70 and DJA2; format: biochemical; details: 4 μM each HSC70 and DJA2, 100 nM luciferase, 100 μM peptide (25-fold excess), 60 min, % of control without peptide; n = 3
Method: Refolding of guanidine denatured luciferase with HSC70 and DJA2 was as described. […] To monitor refolding, luciferase activity was measured in a luminometer (Berthold Sirius) with the luciferase assay kit (Promega). For co-IPs, 20 μL reaction aliquots were stopped by dilution at 4 °C to 500 μL with buffer containing 0.1% Triton X-100, 0.2% BSA and 0.04 mg/mL apyrase (Sigma). Reactions were incubated with FLAG-M2 magnetic beads (Sigma) for 1 h at 4 °C with agitation, then beads were isolated and washed with buffer G containing 0.1% Triton X-100, and eluted with 40 μL of 1 μg/mL FLAG peptide in the same buffer. Samples were analyzed on Western blots detected with antibodies against luciferase (Sigma, L2164) and the FLAG-M2 tag (Sigma, F1804).

T3 sequence (O60884 whole entry): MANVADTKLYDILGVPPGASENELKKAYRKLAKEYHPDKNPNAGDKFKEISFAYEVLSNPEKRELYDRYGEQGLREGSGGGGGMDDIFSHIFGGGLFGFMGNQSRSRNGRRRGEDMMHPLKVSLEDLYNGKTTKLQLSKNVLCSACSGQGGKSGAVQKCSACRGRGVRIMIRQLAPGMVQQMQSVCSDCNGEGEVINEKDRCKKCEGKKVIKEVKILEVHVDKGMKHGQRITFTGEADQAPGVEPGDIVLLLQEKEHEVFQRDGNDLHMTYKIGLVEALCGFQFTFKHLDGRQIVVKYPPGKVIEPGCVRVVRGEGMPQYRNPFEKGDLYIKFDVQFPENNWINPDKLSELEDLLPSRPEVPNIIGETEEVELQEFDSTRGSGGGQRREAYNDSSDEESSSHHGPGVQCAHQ
T2 sequence (P11142 whole entry): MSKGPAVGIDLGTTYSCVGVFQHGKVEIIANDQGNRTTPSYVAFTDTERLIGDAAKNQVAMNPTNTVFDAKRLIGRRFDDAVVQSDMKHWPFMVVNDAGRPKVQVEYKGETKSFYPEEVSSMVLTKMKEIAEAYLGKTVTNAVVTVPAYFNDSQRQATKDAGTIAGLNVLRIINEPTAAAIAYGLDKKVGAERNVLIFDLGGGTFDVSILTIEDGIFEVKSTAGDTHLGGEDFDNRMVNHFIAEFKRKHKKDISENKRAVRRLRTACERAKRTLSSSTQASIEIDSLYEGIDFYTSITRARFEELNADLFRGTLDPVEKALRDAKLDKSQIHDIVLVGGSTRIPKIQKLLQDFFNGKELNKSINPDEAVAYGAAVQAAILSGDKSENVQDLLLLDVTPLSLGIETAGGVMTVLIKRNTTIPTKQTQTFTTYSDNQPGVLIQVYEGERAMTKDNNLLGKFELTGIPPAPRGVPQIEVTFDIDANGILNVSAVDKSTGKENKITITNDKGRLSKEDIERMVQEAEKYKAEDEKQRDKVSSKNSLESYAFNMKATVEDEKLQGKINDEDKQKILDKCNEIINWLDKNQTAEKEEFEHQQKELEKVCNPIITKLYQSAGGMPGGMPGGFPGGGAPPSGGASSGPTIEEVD

FGVIPQKVFIFSGTF [Peptide 1293-L]
competition of DJA1 binding to immobilized 1097-L (in words) [1]: only competed HSC70 | competition of HSC70 binding to immobilized 1097-L (in words) [2]: Strong, essentially saturating competition; also recorded: only competed HSC70 | competition of DJA2 binding to immobilized 1097-L (in words) [3]: only competed HSC70 | HSC70 concentration at which binding reached saturation ([4]; titration on immobilized peptide, Fig. 2a, n ≥ 6): around 1 μM

LRWFQMRIE [Peptide 1100-S]
competition of DJA2 binding to immobilized 1097-L (in words) [3]: competed

493-L: NBD1 15-mer 486-500 (GRISFCSQFSWIMPG; UniProt P13569 486-500, looked up, fragment) [Peptide 493-L]
competition of DJA1 binding to immobilized 1097-L (in words) [1]: competed poorly | competition of HSC70 binding to immobilized 1097-L (in words) [2]: competed poorly | binding in peptide library screen, DJA1 (in words) [5]: binding by DJA1, HSC70 and DJA2, in the original screen | competition of DJA2 binding to immobilized 1097-L (in words) [3]: competed poorly | binding in peptide library screen, DJA2 (in words) [6]: binding by DJA1, HSC70 and DJA2, in the original screen | binding in peptide library screen, HSC70 (in words) ([4]; 2 μM HSC70, with ATP, immobilized 15-mer, n ≥ 3): binding by DJA1, HSC70 and DJA2, in the original screen

QAFADCTVI [Peptide 1394-S, NBD2 9-mer]
DJA1 binding site by competition screen (in words) ([1]; 1 μM DJA1, 100 μM soluble peptide, Fig. 3c/5, cutoff twice SD of 733-L, n ≥ 4): bound by HSC70, DJA2 and DJA1 | HSC70 binding site by competition screen (in words) [2]: bound by HSC70, DJA2 and DJA1 | DJA2 binding site by competition screen (in words) [3]: bound by HSC70, DJA2 and DJA1

EIFESCVCK [Peptide 589-S, NBD1 9-mer]
DJA2 binding site by competition screen (in words) [3]: DJA2 site

ILCEHRIEA [Peptide 1402-S, NBD2 9-mer]
HSC70 binding site by competition screen (in words) [2]: HSC70 site

SKLFFSWTR [Peptide 17-S]
competition of HSC70 binding to immobilized 1097-L (in words) [2]: competed HSC70 well | effect on luciferase refolding (in words) [7]: partial but still significant
